From patent US6589766B1, “Aldol consensations by catalytic antibodies” (The Scripps Research Institute, priority 1997, dated 2003)

Columns and labels:
[1] = test system: aldolase antibodies 38C2 and 33F12; experiment: inhibition of antibody aldolase activity by β-diketones; format: biochemical
Method: For ease of comparison we determined specific rates for these reactions under the following defined conditions: 1 M of donor, 500 mM of aldehyde 4 and 0.4 mol-% of antibody . […] A large variety of other ketones were also studied with aldehyde 4 with monitoring of the consumption of 4 and appearance of a new peak tentatively assigned as the β-hydroxyketone product. The antibody catalyzed aldol reactions were inhibited by addition of equimolar amounts of the hapten 1 or 2,4-pentanedione. Further control experiments were carried out using lysine or bovine serum albumin instead of the antibodies. […] Further study of mixed solvent systems may allow conditions to be defined where substrates such as these are accepted by the catalyst. Of the ketones studied, reactions involving hydroxyacetone as the donor were the most efficient.
No background reaction for the overall conversion of cyclopentanone to 35 in the absence of antibody could be observed following extended incubation for 2 months.
The reaction of 3-methyl-2,4-pentanedione was monitored spectrophotometrically by following the absorption of the antibody-enamine complex 3 now at 335 nm. […] Study of the dependence of the rate of enamine formation on pH with 2,4-pentanedione yielded the same pKa.

[2] = cited from earlier work; for pKa of the amino group: free in aqueous solution / water
[3] = control aldol reactions using lysine or bovine serum albumin instead of the antibodies; format: biochemical; conditions: used instead of the antibodies
Method: For ease of comparison we determined specific rates for these reactions under the following defined conditions: 1 M of donor, 500 mM of aldehyde 4 and 0.4 mol-% of antibody .

[4] = amine catalyzed retro-aldolization of 59 in aqueous buffer and n-octanol; format: biochemical
From the text: Therefore the second order rate constants for n-butylamine and aminoacetonitrile catalyzed retro-aldolization of 59 where determined in aqueous buffer and n-octanol. […] The pka's of n-butylamine and aminoacetonitrile in water are 10.61 and 5.34 (Hupe, D. J.; Kendall, M. C. R.; Spencer, T. A. J. Am. Chem. Soc. 1972, 94, 1254). […] Antibody 38C2 provides a 106-108 fold enhancement of the efficiency of the retro-aldol reaction of 59 as compared to the non-enzymic amine catalyzed reactions in either aqueous or organic media. […] The effectiveness of the active site amine of 38C2 is also indicated by effective molarities between 560 and 35,000 M depending on the amine and solvent system studied.
The activation energy for this reaction should be […] in nonpolar solvents such as the active site of the antibody and n-octanol since the reaction involves charge dispersal in the transition state. A polar medium would be expected to stabilize the cationic iminium intermediates to a greater extent than the activated complex. (Reichardt, C., in Solvents and Solvents Effects in Organic Chemistry Ebel, H. F., Wentrup-Byne, E., Eds.; New York, N.Y., 1990, 2nd eddition, pp1-511; Heathcock, C. H. Stereoselective Aldol Condensations, in E. Buncel and T. Durst (eds): Comprehensive Carbanion Chemistry. Part B, P. 177ff. (particularly p. 198), Elsevier, Amsterdam 1984).

Molecule | pKa of the protons at the 3 position [2] | pKa of the amino group [2] | catalysis of the aldol reactions [3] | also measured
CC(=O)C(C)C(C)=O [3-methyl-2,4-pentanedione] | 10.65 | – | – | inhibition of aldolase activity ([1]; stoichiometric reaction forming stable vinylogous amides): completely inhibiting aldolase activity
CC(=O)CC(C)=O [2,4-pentanedione] | 8.87 | – | – | inhibition of ab 38C2 catalyzed elimination ([1]; elimination from 36 to 35): inhibited; inhibition of antibody catalyzed aldol reactions ([1]; equimolar amounts): inhibited
N#CCN [aminoacetonitrile] | – | 5.34 | – | –
bovine serum albumin: control protein used instead of the antibodies | – | – | No catalysis | –
CCCCN [n-butylamine] | – | 10.61 | – | catalysis in n-octanol compared to catalysis in aqueous solution [4]: 63 fold
NCCCC[C@H](N)C(=O)O [lysine] | – | around 10.5 | No catalysis | –
